A short description of data set [1]: MPA pharmacokinetics in renal transplant patients on MMF (plasma HPLC-UV, Bayesian estimation of AUC). It counts as in vivo, human. Conditions: for AUC(0-t) / Cmax: human, plasma; for AUC(0-t): MPA AUC(0–12); for Patients with MPA AUC outside the therapeutic window range: range 30–60 h mg/L. From the text:
Anonymized medical records of 404 patients receiving immunosuppressant therapy after renal transplantation hospitalized at Limoges University Hospital (France) during the study period from 2011 to 2012 were reviewed. […] The patients were excluded if they received immunosuppression with other medicaments and underwent transplantation of other organs.
All patients received prednisolone orally by standard hospital practice.
According to the MMF daily dose, the study patients were allocated into the 3 study groups: the low MMF dose group received 1000 mg per day (28 patients); medium MMF dose group, 2000 mg per day (54 patients); and high MMF dose group, 3000 mg per day (18 patients).
Blood samples were collected in EDTA tubes at 20 minutes, 1 and 3 hours after the administration of MMF. Plasma was separated by centrifugation. […] Blood serum (500 μL), an internal standard (50 μL) (thiopental in methanol 1 g/L diluted with deproteinized water to 25 mg/L), and calibrators were acidified with hydrochloric acid and extracted with dichloromethane (5 mL). […] The organic fraction was then evaporated to dryness under a stream of nitrogen. The dry residue was reconstituted with 100-μL elution solvent (KH2PO4 buffer/acetonitrile [70/30 v/v] at pH = 2.6). Then, the sample (40 μL) was injected into the HPLC system with a steel column Nucleosil C18, 5 μm (250 × 4.6 mm, id) and with UV detection at 300 nm.

The nature of data set [2]: Chronic allograft nephropathy diagnosis in renal transplant patients (protocol biopsies, Banff 97). Conditions: EVR co-administration.
Protocol: Protocol biopsies were performed and graded according to the Banff 97 classification.[29]
[3] abbreviates: Low-dose MMF group, 1000 mg/day, EVR group.

Each structure is given as a SMILES string.

This is an account of results in paper PMC5380267 (Medicine, 2017).

As a reminder, the AUC(0-t) is the area under the concentration-time curve up to a stated or last time point. Usually Cmax stands for the peak of the concentration-time curve. `COc1c(C)c2c(c(O)c1C/C=C(\C)CCC(=O)O)C(=O)OC2` [MPA, mycophenolic acid]: in data set [1] (CsA 120–180 mg versus 240–300 mg), the “MPA AUC lower in low CsA dose group versus high CsA dose group” value was “approximately 33%”. Besides, the “MPA C0, mean ± SD (range)” value in data set [1] (CsA + MMF group, all MMF doses (n = 83)) is 1.00 ± 0.47 (0.00–2.00) mg/L; in data set [1] (EVR + MMF group, all MMF doses (n = 17)) it was 2.58 ± 1.43 (0.68–4.98) mg/L; in data set [1] (High-dose MMF group, 3000 mg/day, CsA group), 1.29 ± 0.47 (1.00–2.00) mg/L; in data set [1] (High-dose MMF group, 3000 mg/day, EVR group), 3.19 ± 1.60 (1.41–4.89) mg/L; in data set [1] (Low-dose MMF group, 1000 mg/day, CsA group), 0.58 ± 0.51 (0.00–1.00) mg/L; in data set [1] (setting [3]), 1.61 ± 0.65 (0.68–2.24) mg/L. Also, in data set [1] (Medium-dose MMF group, 2000 mg/day, EVR group), the “MPA C0, mean ± SD (range)” value is on record as 4.17 ± 0.78 (3.12–4.98) mg/L. Moreover, in data set [1] (setting [3]), the “MPA AUC(0–12), mean ± SD (range)” value was 31.89 ± 8.43 (20.82–42.25) h mg/L. Further, the area under the curve AUC(0-t) in data set [1] (mean ± SD (range), CsA + MMF group, all MMF doses (n = 83)) is 37900 ± 14100 ng·h/mL; in data set [1] (mean ± SD (range), EVR + MMF group, all MMF doses (n = 17)), 47000 ± 21900 ng·h/mL; in data set [1] (mean ± SD (range), High-dose MMF group, 3000 mg/day, CsA group) it was 44600 ± 14000 ng·h/mL; in data set [1] (mean ± SD (range), High-dose MMF group, 3000 mg/day, EVR group), 59500 ± 18300 ng·h/mL; in data set [1] (mean ± SD (range), Low-dose MMF group, 1000 mg/day, CsA group), 30600 ± 12700 ng·h/mL; in data set [1] (mean ± SD (range), Medium-dose MMF group, 2000 mg/day, CsA group), 38700 ± 13700 ng·h/mL. Further, the AUC(0-t) is 68700 ± 22700 ng·h/mL in data set [1] (mean ± SD (range), Medium-dose MMF group, 2000 mg/day, EVR group); 28100 ± 11000 ng·h/mL in data set [1] (mean ± SD, CsA + MMF, MMF 1000 mg/day, CsA 120–180 mg/day); 40500 ± 11000 ng·h/mL in data set [1] (mean ± SD, CsA + MMF, MMF 1000 mg/day, CsA 180–240 mg/day); 28800 ± 11100 ng·h/mL in data set [1] (mean ± SD, CsA + MMF, MMF 2000 mg/day, CsA 120–180 mg/day); 41800 ± 15600 ng·h/mL in data set [1] (mean ± SD, CsA + MMF, MMF 2000 mg/day, CsA 180–240 mg/day); 43000 ± 6270 ng·h/mL in data set [1] (mean ± SD, CsA + MMF, MMF 2000 mg/day, CsA 240–300 mg/day). The AUC(0-t) in data set [1] (mean ± SD, CsA + MMF, MMF 3000 mg/day, CsA 120–180 mg/day) is 36200 ± 3700 ng·h/mL; in data set [1] (mean ± SD, CsA + MMF, MMF 3000 mg/day, CsA 180–240 mg/day), 43400 ± 13100 ng·h/mL; in data set [1] (mean ± SD, CsA + MMF, MMF 3000 mg/day, CsA 240–300 mg/day) it was 56800 ± 16800 ng·h/mL. Further, the peak concentration (Cmax) in data set [1] (MPA Cmax related to high-dose CsA, CsA >240 mg/day) is greater than 10000 ng/mL; in data set [1] (MPA Cmax, mean ± SD (range), CsA + MMF group, all MMF doses (n = 83)) it was 17600 ± 8510 ng/mL; in data set [1] (MPA Cmax, mean ± SD (range), EVR + MMF group, all MMF doses (n = 17)) it was 14300 ± 6380 ng/mL; in data set [1] (MPA Cmax, mean ± SD (range), High-dose MMF group, 3000 mg/day, CsA group), 21000 ± 7050 ng/mL; in data set [1] (MPA Cmax, mean ± SD (range), Low-dose MMF group, 1000 mg/day, CsA group), 15500 ± 8930 ng/mL; in data set [1] (MPA Cmax, mean ± SD (range), Low-dose MMF group, 1000 mg/day, EVR group), 10800 ± 4810 ng/mL. In addition, the maximum concentration (Cmax) in data set [1] (MPA Cmax, mean ± SD (range), Medium-dose MMF group, 2000 mg/day, CsA group) was 17500 ± 8580 ng/mL; in data set [1] (MPA Cmax, mean ± SD (range), Medium-dose MMF group, 2000 mg/day, EVR group), 17400 ± 7740 ng/mL; in data set [1] (MPA Cmax, mean ± SD, CsA + MMF, MMF 1000 mg/day, CsA 120–180 mg/day), 12100 ± 5590 ng/mL; in data set [1] (MPA Cmax, mean ± SD, CsA + MMF, MMF 1000 mg/day, CsA 180–240 mg/day) it was 22800 ± 10800 ng/mL; in data set [1] (MPA Cmax, mean ± SD, CsA + MMF, MMF 2000 mg/day, CsA 120–180 mg/day), 13000 ± 6820 ng/mL; in data set [1] (MPA Cmax, mean ± SD, CsA + MMF, MMF 2000 mg/day, CsA 180–240 mg/day), 17000 ± 8020 ng/mL. Moreover, the highest concentration (Cmax) is 22800 ± 8860 ng/mL in data set [1] (MPA Cmax, mean ± SD, CsA + MMF, MMF 2000 mg/day, CsA 240–300 mg/day); 19000 ± 5390 ng/mL in data set [1] (MPA Cmax, mean ± SD, CsA + MMF, MMF 3000 mg/day, CsA 120–180 mg/day); 22800 ± 8120 ng/mL in data set [1] (MPA Cmax, mean ± SD, CsA + MMF, MMF 3000 mg/day, CsA 180–240 mg/day); 21200 ± 8770 ng/mL in data set [1] (MPA Cmax, mean ± SD, CsA + MMF, MMF 3000 mg/day, CsA 240–300 mg/day). In addition, the “MPA AUC(0–12) higher with MMF + EVR than with MMF + CsA” value in data set [1] (medium MMF dose (2000 mg)) is given as 43%. Further, the figures for the “Patients with MPA AUC outside the therapeutic window range” value in data set [1] (MMF + CsA), in data set [1] (MMF + EVR) and in data set [1] (all study patients) were 31.3%, 47.00% and 34%, respectively.
For the compound `CO[C@H]1C[C@@H]2CC[C@@H](C)[C@@](O)(O2)C(=O)C(=O)N2CCCC[C@H]2C(=O)O[C@H]([C@H](C)C[C@@H]2CC[C@@H](OCCO)[C@H](OC)C2)CC(=O)[C@H](C)/C=C(\C)[C@@H](O)[C@@H](OC)C(=O)[C@H](C)C[C@H](C)/C=C/C=C/C=C/1C` [EVR, everolimus], the “Chronic allograft nephropathy diagnosed, patients” value came out at 50.0% in data set [2] (high MMF dose group (2 of 4)), 64.7% in data set [2] (in total), 77.8% in data set [2] (low MMF dose group (7 of 9)) and 50.0% in data set [2] (medium MMF dose group (2 of 4)).
